Key:
Assay in all cases: relative viability (nuclei count vs DMSO), 5 days (fraction); higher = more cells survive
[1] = compound: C#Cc1cccc(Nc2ncnc3cc(OC)c(OCCCCCCC(=O)NO)cc23)c1 [CUDC-101] + COc1cccc2cc(-c3nc([C@H]4CC[C@H](C(=O)O)CC4)n4ncnc(N)c34)[nH]c12 [OSI-027] (partner 0.5 µM)
How it was run: (§1)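 Relative viability divides the nuclei count in treated wells by that in vehicle wells. Lung cancer cell lines were seeded in 1536-well plates, dosed by pin tool the next day, and fixed and stained after 5 days in one step with final 0.05% Triton X-100, 1% formaldehyde and 1 ug/ml Hoechst. Dosing was a single drug or a fixed anchor-drug dose plus five library-drug doses (not always all listed) in √10 steps, and values are medians of duplicate plates imaged at 4×.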

[2] = compound: COc1cc2/c(=N/c3ccc(Br)cc3F)nc[nH]c2cc1OCC1CCN(C)CC1 [Vandetanib] + Nc1ncn([C@H]2C[C@H](O)[C@@H](CO)O2)c(=O)n1 [Decitabine] (partner 2 µM)
How it was run: as §1

[3] = compound: COc1cc(N2CCC(N3CCN(C)CC3)CC2)ccc1Nc1ncc(Cl)c(Nc2ccccc2S(=O)(=O)C(C)C)n1 [NVP-TAE684] + C[C@]1(O)C[C@@H](c2nc(-c3ccc4ccc(-c5ccccc5)nc4c3)c3c(N)nccn32)C1 [Linsitinib] (partner 1 µM)
How it was run: as §1

[4] = compound: C1=CC=C2C(=C1)N=C(S2)C(C#N)C3=NC(=NC=C3)NCCC4=CN=CC=C4 + Cc1nc(Nc2ncc(C(=O)Nc3c(C)cccc3Cl)s2)cc(N2CCN(CCO)CC2)n1 [Dasatinib] (partner 0.075 µM)
How it was run: as §1

Cell Line | relative viability ([1]; first compound 0.01 µM) | relative viability ([1]; first compound 0.03162 µM) | relative viability ([1]; first compound 0.3162 µM) | relative viability ([1]; first compound 1 µM) | relative viability ([2]; first compound 0.02 µM) | relative viability ([2]; first compound 0.06325 µM) | relative viability ([2]; first compound 0.2 µM) | relative viability ([2]; first compound 0.6325 µM) | relative viability ([2]; first compound 2 µM) | relative viability ([3]; first compound 0.2 µM) | relative viability ([3]; first compound 2 µM) | relative viability ([4]; first compound 0.005 µM) | relative viability ([4]; first compound 0.01581 µM) | relative viability ([4]; first compound 0.05 µM) | relative viability ([4]; first compound 0.1581 µM) | relative viability ([4]; first compound 0.5 µM) | relative viability ([1]; first compound 0.1 µM) | relative viability ([3]; first compound 0.6325 µM)
201T | 0.801 | 0.703 | 0.752 | 0.687 | 0.831 | 0.828 | 0.859 | 0.85 | 0.797 | 1.1 | 0.925 | 0.799 | 0.523 | 0.599 | 0.549 | 0.486 | – | –
EMC-BAC-2 | 0.405 | 0.371 | 0.315 | 0.263 | 1.03 | 0.938 | 0.902 | 0.966 | 0.905 | 0.771 | 0.51 | 0.334 | 0.359 | 0.364 | 0.388 | 0.324 | 0.401 | –
NCI-H441 | 0.622 | 0.625 | 0.803 | 0.399 | 0.243 | 0.22 | 0.222 | 0.277 | 0.217 | 0.521 | 0.472 | – | 0.663 | 0.638 | 0.473 | 0.425 | 0.621 | 0.627
NCI-H1944 | 0.436 | 0.388 | 0.36 | 0.253 | 0.411 | 0.489 | 0.551 | 0.463 | 0.447 | 1.16 | 1.3 | 0.211 | 0.195 | 0.21 | 0.22 | 0.2 | 0.357 | 1.17
NCI-H727 | 0.633 | 0.601 | 0.578 | 0.369 | 0.827 | 0.798 | 0.938 | 0.885 | 0.492 | 0.331 | 0.216 | – | 0.387 | 0.368 | 0.413 | 0.347 | 0.7 | 0.284
NCI-H1993 | 0.61 | 0.552 | 0.626 | 0.657 | 0.674 | 0.645 | 0.628 | 0.637 | 0.541 | – | 0.658 | 0.565 | 0.607 | 0.487 | 0.673 | 0.536 | 0.625 | 0.66
NCI-H3122 | 0.909 | 1.07 | 1.14 | 0.927 | 0.454 | 0.39 | 0.178 | 0.456 | 0.481 | 0.266 | 0.184 | 0.826 | 0.824 | 0.873 | 1.03 | 0.686 | 1.03 | 0.222
NCI-H1651 | 0.707 | 0.67 | 0.912 | 0.679 | 0.609 | 0.583 | 0.572 | 0.628 | 0.45 | 1.02 | 0.935 | 0.307 | 0.35 | 0.587 | 0.393 | 0.3 | 0.746 | 0.98
NCI-H1355 | 0.393 | 0.385 | 0.416 | 0.309 | 0.351 | 0.357 | 0.369 | 0.339 | 0.363 | 0.724 | 0.535 | 0.674 | 0.66 | 0.699 | 0.772 | 0.478 | 0.411 | 0.826

Reference: the supplement of paper PMC10307832
